{"source": "patent US6761879B1", "about": "“Titanium derived compounds, preparation and use thereof” (Sanofi-Synthelabo, priority 1999, dated 2004)", "origin": "cited, not measured here", "key": {"[1]": {"details": "in particular in aqueous solution"}, "[2]": {"details": "known from prior art"}}}
{"smiles": "[F][Ti]([F])([F])[F]", "note": "[titanium tetrafluoride]", "values": [{"measurement": "pH in aqueous solution", "value": "about 1.5"}, {"measurement": "stability", "setting": "[1]", "value": "relatively unstable"}, {"measurement": "formation of an amorphous protective layer (glaze) at the surface of the enamel of the tooth", "setting": "[2]", "value": "forming an amorphous protective layer"}]}
